Assay results as given in US11655492B2, “Activated formylglycine-generating enzymes and methods of producing and using the same” (R.P. Scherer Technologies, LLC, priority 2015, dated 2023).
“And” between values parts separate entries of the source, which are not always exact repeats. Equal values may be shown once. “Also recorded” adds a separate entry of the source. Read-outs that look alike come from different tables or passages of the source.

How the values were obtained:
Sc-FGE = Sc-FGE (Streptomyces coelicolor, UniProt Q9F3C7); assay type: biochemical, S. coelicolor
Hs-cFGE = target: T1, Hs-cFGE (Homo sapiens, UniProt Q8NBK3)
T1 sequence (Q8NBK3 with tags, fused parts or gaps isoform Q8NBK3-4): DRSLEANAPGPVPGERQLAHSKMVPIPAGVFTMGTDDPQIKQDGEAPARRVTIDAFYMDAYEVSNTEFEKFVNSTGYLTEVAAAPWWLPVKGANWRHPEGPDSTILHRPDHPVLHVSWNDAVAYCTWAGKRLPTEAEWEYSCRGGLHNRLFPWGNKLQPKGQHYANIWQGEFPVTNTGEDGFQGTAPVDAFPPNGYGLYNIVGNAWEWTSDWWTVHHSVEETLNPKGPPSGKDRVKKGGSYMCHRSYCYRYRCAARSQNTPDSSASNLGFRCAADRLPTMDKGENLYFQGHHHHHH

FGE = target: T2, FGE (Homo sapiens, UniProt Q8NBK3); test: FGE reaction mixtures with reductants or additives (product formation); assay type: biochemical; conditions: for rate of product formation: reducing agent used as stoichiometric reductant, in large excess
T2 construct: made in house
T2 sequence (Q8NBK3 with tags, fused parts or gaps isoform Q8NBK3-4): T1 sequence (Q8NBK3 with tags, fused parts or gaps isoform Q8NBK3-4)
Description: The specific activity of FGE was measured using a discontinuous enzymatic activity assay. […] The rate of reaction was determined by integrating the peak areas at 215 nm of the substrate cysteine (Csub) and product (fGly) peptides on reversed-phase HPLC. […] Each aqueous reaction solution (120 μL) contained Csub (100 μM), FGE (0.1-1 μM), DTT (1 mM), and buffer (25 mM TEAM, pH 9). A single time course included 5 data points collected at evenly spaced intervals. The reaction was initiated upon addition of FGE stock solution and vortexing for 3 s. The reaction vial was vortexed at 1,500 RPM and 25° C. in a thermomixer R (Eppendorf). Time points were hand quenched by adding 20 μL of reaction mixture to 2 μL of 1 M HCl using a micropipettor. After completion of the reaction, each time point was analyzed by RP-HPLC (see below).
The conversion of Cys to fGly used a 2 H^+/2 e^− oxidation of the substrate Cys thiol as well as exchange of sulfur for oxygen. […] However, because O2 is a 4 H^+/4 e^− acceptor, a reducing agent was used to provide a second equivalent of 2 H^+ and 2 e^−, completing the reduction from O2 to 2 mol H2O. […] A mixture of reductant (DTT) and O2 was used for routine activity measurements.

[1] = as measured versus glutathione disulfide; cited from earlier work
CT-1.1 tagged Her2 = test: 293 Expi transient co-transfection of FGE form and CT tagged antibody, conversion by mass-spectrometry; assay type: cell-based
Description: A 293 Expi transient co-transfection system (Life Technologies) was used for producing antibodies having a formylglycine residue at a selected site. The system produced high antibody titers (100-500 mg/L) with variable (10-95%) conversion. […] Expi 293F that were treated with or without 50 μM copper sulfate prior to transfection were transiently co-transfected in three independent experiments with expression plasmids for full-length human FGE with an N-terminal KDEL (SEQ ID NO:7) amino acid sequence (+KDEL) and CT tagged antibody at a ratio of 3:1 antibody:FGE DNA. The culture was harvested at 5-6 days post transfection, titer assessed by ELISA, and the protein was purified and conversion was measured by mass-spectrometry.
Expi 293F cells that were treated with or without 50 μM copper sulfate prior to transfection were transiently co-transfected with expression plasmids for various forms of human FGE (+KDEL, WT, myc-His) and CT tagged antibody at a ratio of 3:1 antibody:FGE DNA. The culture was harvested at 5 days post transfection, titer assessed by ELISA, the protein was purified and conversion was measured by mass-spectrometry.

human FGE = human FGE (Homo sapiens, UniProt Q8NBK3); test: Effect of stimulators and inhibitors of oxidative phosphorylation on conversion; assay type: cell-based; conditions: DCA 0-50,000 μM; rotenone 0-15,000 nM with Cu^2+
Description: Experiments were performed to determine the effect of stimulators and inhibitors of oxidative phosphorylation on conversion efficiency for human FGE, as compared to Cu^2+.
(§1) Several experiments were run treating cells with DCA at several concentrations (DCA: 0 μM; 16 μM; 80 μM; 400 μM; 2000 μM; 10,000 μM; and 50,000 μM) and treating cells with Cu^2+ (copper sulfate) and rotenone (Rotenone: 0 nM; 5 nM; 24 nM; 120 nM; 600 nM; 3000 nM; and 15,000 nM) at several concentrations. Cells were plated and 10 μL of DCA or rotenone was added for a 4 hour treatment. Cells were equilibrated to room temperature 100 μL/well of Cell titerglo reagent (Promega) was added to each well. The plates were shaken of 2 min, incubated at room temperature for 10 min, and then read on a plate reader.

ATP production = ATP production dose response (Cell titerglo, 4 hour treatment); assay type: cell-based
Description: as §1

[2] = system: 14 amino acid peptide ALCTPSRGSLFTGR (SEQ ID NO:8); test: Discontinuous FGE activity assay on peptide substrate (RP-HPLC); assay type: biochemical
Description: [formula] where Et is the total enzyme in solution, and kcat and KM are the standard enzymatic parameters specified by the STRENDA commission. Units of enzyme specific activity are the katal, where 1 kat=1 mol·s^−1. Kinetic parameters were determined from nonlinear regression of [substrate] v. initial velocity using GraphPad prism.
The specific activity of FGE was measuring using a discontinuous enzymatic activity assay. The substrate for FGE was a 14 amino acid peptide containing the consensus sequence (H2N-[…]-COOH (SEQ ID NO:8)). The rate of reaction was determined by integrating the peak area at 215 nm of the starting material (Cys) and product (fGly) containing peptides on reversed-phase HPLC. The identity of product (and side product) peaks were determined by RP-HPLC MS/MS. Each aqueous reaction solution (60 μL) contained substrate peptide (100 μM), FGE (1 μM), DTT (1 mM), and buffer (25 mM triethanolamine, pH 9). A single time course consisted of 5 data points collected every 2 minutes. The reaction was initiated upon addition of FGE stock solution and vortexing for 3 s. Time points were quenched by diluting 10 μL of reaction mixture into 1 μL of 1 M HCl by hand with a micropipettor. After completion of the reaction, each time point was analyzed by RP-HPLC.
Substrate, product, and side products of the FGE substrate peptide […] (SEQ ID NO:8) were separated on RP-HPLC over 7 min with isocratic 18% MeCN in water containing 0.1% TFA. The integrated area of the fGly (2.1 min), Cys (3.3 min), βME-DS (3.6 min), and Cys-DS (6.2 min) forms of the substrate were used to calculate total area and each fraction thereof.
The specific activity of FGE was measured using a discontinuous enzymatic activity assay. The substrate for FGE was a 14 amino acid peptide containing the CXPXR consensus sequence ([…] (SEQ ID NO:8)). The rate of reaction was determined by integrating the peak areas at 215 nm of the substrate cysteine (Csub) and product (fGly) peptides on reversed-phase HPLC. The identities of product (and side product) peaks were determined by RP-HPLC MS/MS (see below). Each aqueous reaction solution (120 μL) contained Csub (100 μM), FGE (0.1-1 μM), DTT (1 mM), and buffer (25 mM TEAM, pH 9). A single time course included 5 data points collected at evenly spaced intervals. The reaction was initiated upon addition of FGE stock solution and vortexing for 3 s. The reaction vial was vortexed at 1,500 RPM and 25° C. in a thermomixer R (Eppendorf). Time points were hand quenched by adding 20 μL of reaction mixture to 2 μL of 1 M HCl using a micropipettor. After completion of the reaction, each time point was analyzed by RP-HPLC (see below).
Substrate, product, and side products of the FGE substrate peptide […] (SEQ ID NO:8) were separated on RP-HPLC over 7 min with isocratic 18% MeCN in water containing 0.1% TFA. The integrated areas of the fGly (2.1 min), Csub (3.3 min), the Csub/βME disulfide (Csub-βME, 3.6 min), and substrate/substrate disulfide (Csub-Csub, 6.1 min) forms of the substrate were used to calculate total area and each fraction thereof.
Individual FGE reactions were initiated by rapidly mixing FGE into a premixed buffered solution of Csub and reducing agent. It was assumed that all buffered solutions contained oxygen at ˜270 μM at 25° C. (based upon Henry's law). Time points were chemically quenched by hand with HCl. […]. The identities of both the Cys- and fGly-containing peptides were confirmed by LC-MS/MS (FIG. 11). These assignments were then correlated with HPLC retention times (FIG. 14, panel a). The integrated peak areas of substrate and product were used to calculate the initial velocity of FGE (FIG. 14, panel b) using the method described by Boeker (Biochem. J., (1984), 223, 15; and Biochem. J., (1985), 226, 29).

[3] = system: IgG containing the aldehyde tag; test: In vitro conversion of intact mAb with FGE, fGly by LC-MRM/MS; assay type: biochemical
Description: DTT (20 mM) was added to a solution of mAb (20 μg) in buffered aqueous solution (25 mM NH4HCO3) to a final volume of 20 μL. The tube containing the sample was incubated at 37° C. for 15 min at 1500 RPM. Then, HCl (50 mM) was added to the solution and the tube was vortexed until mixed. Next, ammonium bicarbonate (100 mM) was added to the solution and the tube was vortexed until mixed. Trypsin (1 μg) and iodoacetamide (50 mM) were added, and the tube was incubated at 37° C. and 1500 RPM for 60 min in the dark. Finally, sodium citrate (150 mM, pH 5.5) and methoxylamine (100 mM) were added to the solution, and the tube was incubated at 37° C. for 16 h. The processed sample was then analyzed by LC-MRM/MS. The MRM transitions included modifications of the Cys-containing peptide including: cysteine, cysteine modified with iodoacetamide, formylglycine, formylglycine hydrate (including loss of water in the collision cell), and formylglycine methyl oxime. The abundance of each species was defined by its 5 most intense precursor/product ion pairs, which were integrated to give the total signal and relative fractions of each component. In the optimized digestion and capping procedure described above, unreacted Cys, fGly, or fGly-hydrate above background was not detected, observing only carboxyacetamidomethyl Cys (CAM) and the methyl oxime of fGly (MeOx). […]

[4] = nonlinear regression to Michaelis-Menten equation

Sequence of Sc-FGE (Q9F3C7 whole entry): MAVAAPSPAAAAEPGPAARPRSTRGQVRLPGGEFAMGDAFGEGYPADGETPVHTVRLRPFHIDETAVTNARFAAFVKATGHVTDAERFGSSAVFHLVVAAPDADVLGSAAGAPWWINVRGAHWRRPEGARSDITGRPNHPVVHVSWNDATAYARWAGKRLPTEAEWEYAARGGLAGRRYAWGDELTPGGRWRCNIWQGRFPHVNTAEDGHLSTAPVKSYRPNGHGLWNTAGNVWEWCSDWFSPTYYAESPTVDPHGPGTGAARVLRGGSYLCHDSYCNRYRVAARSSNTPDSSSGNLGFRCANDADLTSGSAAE
Sequence of human FGE (Q8NBK3 34-374): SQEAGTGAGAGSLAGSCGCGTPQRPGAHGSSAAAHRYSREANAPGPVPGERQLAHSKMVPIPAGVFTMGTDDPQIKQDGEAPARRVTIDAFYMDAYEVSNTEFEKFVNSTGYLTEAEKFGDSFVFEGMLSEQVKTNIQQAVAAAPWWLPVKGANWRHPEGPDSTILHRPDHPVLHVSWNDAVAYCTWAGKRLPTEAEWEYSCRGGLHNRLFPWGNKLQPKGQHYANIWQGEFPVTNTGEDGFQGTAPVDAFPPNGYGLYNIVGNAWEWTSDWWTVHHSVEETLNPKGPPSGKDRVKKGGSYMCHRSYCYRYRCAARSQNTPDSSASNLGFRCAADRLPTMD
Description for SQR: A Western blotting was performed on lysates from cells treated with Cu^2+ or not treated with Cu^2+, using antibodies against SQR to determine whether Cu^2+ increased the levels of SQR. […] Experiments were also performed to test whether overexpression of SQR in Expi cells could be a substitute for Cu^2+ in increasing conversion.

O=C(O)CN(CCN(CC(=O)O)CC(=O)O)CC(=O)O [EDTA, Ethylenediaminetetraacetic acid]
effect of pretreatment of activated enzyme on specific activity (Sc-FGE): do not change; also recorded: did not change | effect of pretreatment of activated enzyme on catalytic activity (Hs-cFGE; copper-treated Hs-cFGE, EDTA 5 molar equiv or KCN): did not change

OCCS [βME, β-mercaptoethanol]
rate of product formation (FGE): 5.07 min⁻¹ | thiol-disulfide exchange rate constant k [1]: 1

O=S(=O)([O-])[O-].[Cu+2] [Cu^2+, copper(II) sulfate]
effect on conversion (CT-1.1 tagged Her2): enhances conversion | cell viability (CHO cells): does not significantly change | levels of SQR (SQR): No significant difference

OO [H2O2, hydrogen peroxide]
effect on product formation when added directly to the reaction (FGE; additive in the in vitro FGE reaction mixture): halted the reaction

O=C(O)CCP(CCC(=O)O)CCC(=O)O [TCEP, tris(carboxyethyl)phosphine]
effect of pretreatment of activated enzyme on specific activity (Sc-FGE): do not change | effect of treatment on specific activity (Hs-cFGE): unchanged specific activity

O[C@H](CS)[C@H](O)CS (racemic) [DTT, dithiothreitol]
effect of pretreatment of activated enzyme on specific activity (Sc-FGE; activated Sc-FGE, reductant and/or chelator, 15 mM each, 1 h, 37° C.): do not change | effect of pretreatment on specific activity (Sc-FGE; excess (100 molar equiv), 1 h at 25° C., reagent removed by gel filtration): did not change | rate of product formation (FGE): 3.27 min⁻¹ | effect of treatment on specific activity (Hs-cFGE; 20 mM reducing agent on activated Hs-cFGE): unchanged specific activity | thiol-disulfide exchange rate constant k [1]: 6×10^5

C=C(C)[C@H]1Cc2c(ccc3c2O[C@@H]2COc4cc(OC)c(OC)cc4[C@@H]2C3=O)O1 [rotenone, Rotenone]
effect on conversion (human FGE): no effect on conversion | ATP production (ATP production): affected ATP production as expected

B1: Hs-cFGE: catalytic core of H. sapiens FGE with C-terminal His6 tag (SEQ ID NO. 11), expressed in Hi5 insect cells (protein)
chain: T1 sequence (Q8NBK3 with tags, fused parts or gaps isoform Q8NBK3-4)
increase of specific activity on activation ([2]; 5 molar equiv of CuSO4, 1 h at 25° C., activated vs as purified): 3 | specific activity ([2]; after activation with 5 molar equiv of CuSO4, 1 h at 25° C., excess copper removed): 3,050±115 pkat·mg^−1 | specific activity ([2]; as purified from cell culture, not activated): 1,143 pkat·mg^−1 and 1,143±84 pkat·mg^−1 | efficiency relative to bacterial counterpart (Sc-FGE) ([2]; from kcat/KM): approximately 10 fold | Km [2, 4]: 0.34 µM | kcat [2, 4]: 0.101 s⁻¹ | fGly content in the antibody ([3]; after in vitro conversion): 95-100% | conversion yield from Cys to fGly ([3]; in vitro conversion of aldehyde tagged mAb): 90-100% and > 90%
